Measured values: US4002733A, “Sunscreening compositions” (Minnesota Mining and Manufacturing Company, priority 1974, dated 1977)

Test: UV absorption of the product in solution (absorption maximum, Epsilon value)
Format: physicochemical
Conditions: solvent not stated

CCC(=O)c1ccc(NC(=O)CCCCCCCCC(=O)Nc2ccc(C(=O)CC)cc2)cc1 [Example 4]
absorption maxima: 292 nm
molar extinction coefficient (Epsilon value): 48,000
